Measurements taken from patent US20130096105A1, “ArylSulfonamide Based Matrix Metalloprotease Inhibitors” (NOVARTIS AG, priority 2008, published 2013).

Tests used:
Collagenase-3 (MMP-13) = Collagenase-3 (MMP-13) (Homo sapiens, UniProt P45452); assay: Collagenase-3 (MMP-13) inhibitory activity, fluorogenic peptide substrate cleavage; format: biochemical; settings: read-out: MMP13 IC50
Outline: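 Recombinant pro-MMP-13 activated with 1 mM APMA; inhibitor preincubated 60 min, then 5 μM MCA-Lys-Pro-Leu-Gly-Leu-Dpa-Ala-Arg-NH2 added in Tris-Cl pH 7.5 buffer with Zn2+, Ca2+, Brij-35, 1.0% DMSO, 20-25 °C. Fluorescence (ex 325/em 405 nm) read after 60 min; IC50 versus uninhibited control.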

Gelatinase (MMP-2) = target: T1, Gelatinase (MMP-2) (Homo sapiens, UniProt P08253); assay: Gelatinase (MMP-2) inhibitory activity, fluorogenic peptide substrate cleavage; format: biochemical; settings: read-out: MMP02 IC50
T1 sequence (P08253 110-660): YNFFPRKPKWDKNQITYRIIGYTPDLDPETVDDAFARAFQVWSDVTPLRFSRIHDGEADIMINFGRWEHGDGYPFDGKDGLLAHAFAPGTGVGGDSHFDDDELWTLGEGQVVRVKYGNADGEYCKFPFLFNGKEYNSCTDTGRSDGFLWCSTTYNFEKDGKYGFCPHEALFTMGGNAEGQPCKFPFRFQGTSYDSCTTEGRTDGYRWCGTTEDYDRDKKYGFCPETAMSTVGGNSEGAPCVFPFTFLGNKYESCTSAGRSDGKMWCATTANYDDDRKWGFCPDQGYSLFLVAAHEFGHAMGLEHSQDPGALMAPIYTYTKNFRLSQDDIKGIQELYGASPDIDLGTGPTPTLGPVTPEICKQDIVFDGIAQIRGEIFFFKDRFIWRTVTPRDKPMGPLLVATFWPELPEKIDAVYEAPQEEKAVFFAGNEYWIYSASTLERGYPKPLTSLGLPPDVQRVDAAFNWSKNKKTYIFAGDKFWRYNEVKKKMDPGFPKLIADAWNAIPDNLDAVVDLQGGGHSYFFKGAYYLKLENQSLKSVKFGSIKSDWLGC
Outline: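 Fluorogenic assay with MCA-Lys-Pro-Leu-Gly-Leu-Dpa-Ala-Arg-NH2 at 5 μM in Tris-Cl pH 7.5 buffer with ZnCl2, CaCl2, Brij-35 and 1.0% DMSO, 20-25 °C. Enzyme preincubated with inhibitor 60 min; fluorescence (ex 325/em 405 nm) read 60 min after substrate addition. IC50 relative to uninhibited control.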

IC50 (Collagenase-3 (MMP-13))	melting point	IC50 (Gelatinase (MMP-2))	SMILES
12400 nM	147 to 149 °C	10400 nM	C#Cc1ccc(C(=O)c2ccc(Cl)c(S(N)(=O)=O)c2)cc1 [Example 31, 2-Chloro-5-(4-ethynyl-benzoyl)-benzenesulfonamide]
11100 nM	206 to 208 °C	17300 nM	NS(=O)(=O)c1cc(C(=O)c2ccc(O)c(F)c2)ccc1Cl [Example 47, 2-Chloro-5-(3-fluoro-4-hydroxy-benzoyl)-benzenesulfonamide]
21300 nM	183 to 185 °C	24300 nM	NS(=O)(=O)c1cc(C(=O)c2ccc(O)cc2F)ccc1Cl [Example 50, 2-Chloro-5-(2-fluoro-4-hydroxy-benzoyl)-benzenesulfonamide]
> 30000 nM	146 to 148 °C	> 30000 nM	NS(=O)(=O)c1cc(C(=O)c2ccc(C(=O)N3CCCC3)cc2)ccc1Cl [Example 53, 2-Chloro-5-[4-(pyrrolidine-1-carbonyl)-benzoyl]-benzenesulfonamide]
300 nM	–	23000 nM	Cc1noc(C)c1-c1c[nH]c2cc(C(=O)c3ccc(Cl)c(S(N)(=O)=O)c3)ccc12 [Example 133, 2-Chloro-5-[3-(3,5-dimethyl-isoxazol-4-yl)-1H-indole-6-carbonyl]-benzenesulfonamide]
60 nM	–	3550 nM	CCc1cc(-c2c[nH]c3cc(C(=O)c4ccc(Cl)c(S(N)(=O)=O)c4)ccc23)ccn1 [Example 138, 2-Chloro-5-[3-(2-ethyl-pyridin-4-yl)-1H-indole-6-carbonyl]-benzenesulfonamide]
68 nM	–	4150 nM	NS(=O)(=O)c1cc(C(=O)c2ccc3c(-c4ccnc(C5CC5)c4)c[nH]c3c2)ccc1Cl [Example 139, 2-Chloro-5-[3-(2-cyclopropyl-pyridin-4-yl)-1H-indole-6-carbonyl]-benzenesulfonamide]
17 nM	–	200 nM	CN(C)CCOc1cc(-c2c[nH]c3cc(C(=O)c4ccc(Cl)c(S(N)(=O)=O)c4)ccc23)ccn1 [Example 142, 2-Chloro-5-{3-[2-(2-dimethylamino-ethoxy)-pyridin-4-yl]-1H-indole-6-carbonyl}-benzenesulfonamide]
150 nM	–	2850 nM	NS(=O)(=O)c1cc(C(=O)c2ccc3c(-c4ccnc(OCCN5CCOCC5)c4)c[nH]c3c2)ccc1Cl [Example 143, 2-Chloro-5-{3-[2-(2-morpholin-4-yl-ethoxy)-pyridin-4-yl]-1H-indole-6-carbonyl}-benzenesulfonamide]

Further lines, the molecule ahead of its results:

SMILES	IC50 (Collagenase-3 (MMP-13))	melting point	IC50 (Gelatinase (MMP-2))
COc1ccc(C(=O)c2cccc(S(N)(=O)=O)c2)cc1 [Example 1, 3-(4-Methoxy-benzoyl)-benzenesulfonamide]	2490 nM	119 to 122 °C	1920 nM
COc1ccc(C(=O)c2ccc(Cl)c(S(N)(=O)=O)c2)cc1 [Example 3, 2-Chloro-5-(4-methoxy-benzoyl)-benzenesulfonamide]	2020 nM	156 to 158 °C	5180 nM
NS(=O)(=O)c1cc(C(=O)c2ccc(-c3ccc4ccccc4c3)cc2)ccc1Cl [Example 38, 2-Chloro-5-(4-naphthalen-2-yl-benzoyl)-benzenesulfonamide]	8580 nM	193 to 195 °C	14500 nM
NS(=O)(=O)c1cc(C(=O)c2ccc(-c3cccnc3)cc2)ccc1Cl [Example 41, 2-Chloro-5-(4-pyridin-3-yl-benzoyl)-benzenesulfonamide]	7520 nM	190 to 192 °C	> 9000 nM
Cc1cccc(-c2ccc(C(=O)c3ccc(Cl)c(S(N)(=O)=O)c3)cc2)c1 [Example 60, 2-Chloro-5-(3′-methyl-biphenyl-4-carbonyl)-benzenesulfonamide]	5440 nM	176 to 178 °C	6310 nM
Nc1cccc(-c2ccc(C(=O)c3ccc(Cl)c(S(N)(=O)=O)c3)cc2)c1 [Example 69, 5-(3′-Amino-biphenyl-4-carbonyl)-2-chloro-benzenesulfonamide]	2410 nM	228 to 230 °C	1370 nM
NS(=O)(=O)c1cc(C(=O)c2ccc(-c3cccc(C(F)(F)F)c3)cc2)ccc1Cl [Example 75, 2-Chloro-5-(3′-trifluoromethyl-biphenyl-4-carbonyl)-benzenesulfonamide]	25900 nM	75 to 77 °C	> 30000 nM
NS(=O)(=O)c1cc(C(=O)c2ccc3c(c2)CCN3)ccc1Cl [Example 110, 2-Chloro-5-(2,3-dihydro-1H-indole-5-carbonyl)-benzenesulfonamide]	16100 nM	55 to 56 °C	12000 nM
NS(=O)(=O)c1cc(C(=O)c2ccc3[nH]ccc3c2)ccc1Cl [Example 116, 2-Chloro-5-(1H-indole-5-carbonyl)-benzenesulfonamide]	15300 nM	65 to 66 °C	15400 nM
NS(=O)(=O)c1cc(C(=O)c2ccc3c(-c4ccc(C(=O)N5CCOCC5)cc4)c[nH]c3c2)ccc1Cl [Example 132, 2-Chloro-5-{3-[4-(morpholine-4-carbonyl)-phenyl]-1H-indole-6-carbonyl}-benzenesulfonamide]	730 nM	–	16000 nM
COc1cc(-c2c[nH]c3cc(C(=O)c4ccc(Cl)c(S(N)(=O)=O)c4)ccc23)c(Cl)cn1 [Example 134, 2-Chloro-5-[3-(5-chloro-2-methoxy-pyridin-4-yl)-1H-indole-6-carbonyl]-benzenesulfonamide]	100 nM	–	23000 nM
NS(=O)(=O)c1cc(C(=O)c2ccc3c(-c4ccncc4)c[nH]c3c2)ccc1Cl [Example 135, 2-Chloro-5-(3-pyridin-4-yl-1H-indole-6-carbonyl)-benzenesulfonamide]	90 nM	–	1050 nM
NS(=O)(=O)c1cc(C(=O)c2ccc3c(-c4ccnc(Cl)c4)c[nH]c3c2)ccc1Cl [Example 136, 2-Chloro-5-[3-(2-chloro-pyridin-4-yl)-1H-indole-6-carbony]-benzenesulfonamide]	250 nM	–	18000 nM
Cc1cc(-c2c[nH]c3cc(C(=O)c4ccc(Cl)c(S(N)(=O)=O)c4)ccc23)ccn1 [Example 137, 2-Chloro-5-[3-(2-methyl-pyridin-4-yl)-1H-indole-6-carbonyl]-benzenesulfonamide]	41 nM	–	3450 nM
COCCCc1cc(-c2c[nH]c3cc(C(=O)c4ccc(Cl)c(S(N)(=O)=O)c4)ccc23)ccn1 [Example 140, 2-Chloro-5-{3-[2-(3-methoxy-propyl)-pyridin-4-yl]-1H-indole-6-carbonyl}-benzenesulfonamide]	7 nM	–	360 nM
NS(=O)(=O)c1cc(C(=O)c2ccc3c(-c4ccnc(CCCN5CCOCC5)c4)c[nH]c3c2)ccc1Cl [Example 141, 2-Chloro-5-{3-[2-(3-morpholin-4-yl-propyl)-pyridin-4-yl]-1H-indole-6-carbonyl}-benzenesulfonamide]	20 nM	–	1100 nM
NS(=O)(=O)c1cc(C(=O)c2ccc3cc[nH]c3c2)ccc1F [Example 144, 2-Fluoro-5-(1H-indole-6-carbonyl)-benzenesulfonamide]	300 nM	–	390 nM
Cc1ccc(C(=O)c2ccc3cc[nH]c3c2)cc1S(N)(=O)=O [Example 145, 5-(1H-Indole-6-carbonyl)-2-methyl-benzenesulfonamide]	100 nM	–	200 nM
NS(=O)(=O)c1cccc(C(=O)c2ccc3cc[nH]c3c2)c1 [Example 146, 3-(1H-Indole-6-carbonyl)-benzenesulfonamide]	200 nM	–	240 nM
Cc1cc(-c2c[nH]c3cc(C(=O)c4ccc(C)c(S(N)(=O)=O)c4)ccc23)ccn1 [Example 147, 2-Methyl-5-[3-(2-methyl-pyridin-4-yl)-1H-indole-6-carbonyl]-benzenesulfonamide]	20 nM	–	2400 nM
